These results are taken from patent US20200239530A1, “COMPOUNDS AND METHODS OF MODULATING PROTEIN DEGRADATION” (Vividion Therapeutics, Inc., priority 2017, published 2020).

One assay deals with T1, Q9Y576 (Homo sapiens, UniProt Q9Y576).
T1 construct: endogenous in cells
Briefly: Competitive cysteine profiling, probe competition (Table 2B). It counts as binding. Conditions: 100 uM. From the text:
(§1) The following 96-well sample prep protocol was used for sample preparation.

Assay [1] deals with T2, ABCD3 ATP-binding cassette sub-family D member 3 (Homo sapiens, UniProt P28288).
T2 construct: Cells were resuspended in cold PBS on ice and sonicated with a probe sonicator to achieve lysis; endogenous in cells
Briefly: Cysteine liganding, probe competition. As to the method: Cells were resuspended in cold PBS on ice and sonicated with a probe sonicator to achieve lysis. 200 μL of lysate containing 5 mg/ml proteome was treated with 2 μL of 100× compound stock in a 2-mL deep-well plate. The treated lysate was subsequently incubate at 25° C. for 1 hr with shaking at 600 rpm. The treated lysate was further incubated with 2 μL of 10 mM desthiobiotin iodoacetamide probe at 25° C. for 1 hr with shaking at 600 rpm. Next, the lysate was further treat with 20 μL of solution of PBS containing 11 mM MgSO4 and 2.5% Turbonuclease stock and incubated at 25° C. for 20 minutes with shaking at 600 rpm. 1.7 mL ice-cold acetone was added to each well and incubated at −20° C. for 2 hr, followed by max speed (4200 rpm) spin for 45 min. Acetone was then decanted and the plates were blotted to remove acetone. The plates were then dried in open air for 20 minutes. After drying, the plates were then covered with foil seal and stored at −80° C. overnight.
The next day, samples were re-suspended in 90 μL of solution of 9M urea, 50 mM ammonium bicarbonate and 10 mM DTT by incubating at 65C for 20 min with shaking at 1500 rpm. Next, samples were cooled to 37° C. and then 10 μL of 500 mM iodoacetamide solution (92.48 mg/ml) was added. The samples were then incubated at 37° C. for 30 min with shaking at 600 rpm. […]

Assay [2] deals with T3, HNRPLL Heterogeneous nuclear ribonucleoprotein L-like (Homo sapiens, UniProt Q8WVV9).
T3 construct: Cells were resuspended in cold PBS on ice and sonicated with a probe sonicator to achieve lysis; endogenous in cells
Briefly: Cysteine liganding, probe competition. It counts as binding. Conditions: HNRPLL Res# 464, uniprot Q8WVV9. The method in brief:
(§2)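 Steps: sonicate cells in cold PBS; treat 5 mg/ml lysate with compound (25° C, 1 hr); add desthiobiotin iodoacetamide probe from a 10 mM stock (25° C, 1 hr); precipitate, reduce, alkylate, digest with trypsin; capture labelled peptides on streptavidin for analysis.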

A further assay addresses T4, Q8NF64 (Homo sapiens, UniProt Q8NF64).
T4 construct: 200 μL of lysate containing 5 mg/ml proteome was treated with 2 μL of 100× compound stock; endogenous in cells
Briefly: Cysteine liganding, probe competition (Table 2B). It counts as binding. Conditions: one line per cysteine site, read-out: KB02_500 uM_percent_inhibition.
Source text: as §1

For a further assay, the target named is T5, A6QL63 (Homo sapiens, UniProt A6QL63).
T5 construct: 200 μL of lysate containing 5 mg/ml proteome was treated with 2 μL of 100× compound stock; endogenous in cells
The assay is described as follows: Competitive cysteine profiling, probe competition (Table 2B). The format is binding. Conditions: read-out: KB02_100 uM_percent_inhibition.
Source text: as §1

For a further assay, the target named is T6, Q8N961 (Homo sapiens, UniProt Q8N961).
T6 construct: Cells were resuspended in cold PBS on ice and sonicated with a probe sonicator to achieve lysis; endogenous in cells
The assay is described as above. The format is binding.
Source text: as §1

A further assay concerns the target T7, Q9NR09 (Homo sapiens, UniProt Q9NR09).
T7 construct: endogenous in cells
The description is as above. The format is binding. The following applies: 100 uM.
Source text: as §1

The next assay addresses Q9NXR7 (Homo sapiens, UniProt Q9NXR7). The description is as above. Set-up: endogenous in cells. The format is binding. The following applies: read-out: KB02_500 uM_percent_inhibition.
Source text: as §1

Assay [3] deals with T8, B-cell lymphoma 6 protein (BCL6) (Homo sapiens, UniProt P41182).
T8 construct: Cells were resuspended in cold PBS on ice and sonicated with a probe sonicator to achieve lysis; endogenous in cells
Briefly: Cysteine liganding, probe competition. It counts as binding. The essentials: as §2

A further assay concerns the target T9, Q9C0D3 (Homo sapiens, UniProt Q9C0D3).
T9 construct: endogenous in cells; whole-cell lysate
The assay is described as follows: Cysteine liganding, probe competition (Table 2B). The format is binding. The following applies: one line per cysteine site, read-out: KB05_100 uM_percent_inhibition.
Source text: as §1

Another assay concerns the target T10, Q9ULT6 (Homo sapiens, UniProt Q9ULT6).
T10 construct: 200 μL of lysate containing 5 mg/ml proteome was treated with 2 μL of 100× compound stock; endogenous in cells
The assay is described as follows: Cysteine liganding, probe competition (Table 2B). It counts as binding. Conditions: one line per cysteine site, read-out: KB05_500 uM_percent_inhibition.
Source text: as §1

The target of the next assay is T11, Q969K4 (Homo sapiens, UniProt Q969K4).
T11 construct: Cells were resuspended in cold PBS on ice and sonicated with a probe sonicator to achieve lysis; endogenous in cells
Briefly: Competitive cysteine profiling, probe competition (Table 2B). It counts as binding. Conditions: read-out: KB05_100 uM_percent_inhibition.
Source text: as §1

The target of another assay is T12, Q96Q27 (Homo sapiens, UniProt Q96Q27).
T12 construct: endogenous in cells
The assay is described as above. It counts as binding. The following applies: read-out: KB05_100 uM_percent_inhibition.
Source text: as §1

For the next assay, the target named is T13, UniProt Q6ZMN7 (Homo sapiens, UniProt Q6ZMN7).
T13 construct: 200 μL of lysate containing 5 mg/ml proteome was treated with 2 μL of 100× compound stock; endogenous in cells
Briefly: Cysteine liganding, probe competition. The format is binding. The following applies: read-out: KB05_500 uM_percent_inhibition.
Source text: as §1

Another assay concerns the target Q99728 (Homo sapiens, UniProt Q99728). The assay is described as follows: Competitive cysteine profiling, probe competition (Table 2B). The format is binding. Set-up: endogenous in cells. The following applies: read-out: KB05_100 uM_percent_inhibition.
Source text: as §1

`O=C(CCl)Nc1cc(C(F)(F)F)cc(C(F)(F)F)c1` [KBO3]: on Q9Y576, the “KB03_100 uM_percent_inhibition” value is reported as 51%.
Take `COc1ccc2c(c1)CCCN2C(=O)CCl` [KB02]: the Liganded result in assay [1] (ABCD3 Res# 472, uniprot P28288) is “YES”; in assay [1] (ABCD3 Res# 477, uniprot P28288), “YES”; in assay [2] it was “YES”. In addition, the values for the inhibition at 500 µM at Q8NF64 and at Q9NXR7 were 46% and 50%, respectively. The results for the inhibition at 100 µM at A6QL63 and at Q8N961 (read-out: KB02_100 uM_percent_inhibition) were 9% and 52%, respectively. Also, the “KB02_100 uM_percent_inhibition” value on Q8N961 (100 uM) stood at 60%; at Q9NR09 it was 24%.
Turning to `C=CC(=O)N(c1ccccc1)c1ccc(Br)cc1` [KB05], in assay [3] (100 uM), the “KB05_100 uM_percent_inhibition” value was determined as 7%. For the same compound, the inhibition at 100 µM in [3] (read-out: KB05_100 uM_percent_inhibition) came out at 9%; at Q9C0D3 it was 48%; at Q969K4, 3%; on Q96Q27, 36%; at Q99728, 31%. Besides, the results for the inhibition at 500 µM at Q9ULT6 and on UniProt Q6ZMN7 were 36% and 1%, respectively.
